From patent US10196373B2, “Substituted 2-hydroxy-4-(2-(phenylsulfonamido)acetamido)benzoic acid analogs as inhibitors of STAT protein” (University of Central Florida Research Foundation, Inc., priority 2010, dated 2019)

Target: STAT3 (Homo sapiens (Human), UniProt P40763)
Experiment: Fluorescence polarization assay, inhibition of binding to STAT3
Details: inhibition of binding to STAT3 in a fluorescence polarization assay; read-out: Ki (FP)
Description: The fluorescent polarization experiments were performed on an Infinite M1000 (Tecan, Crailsheim, Germany). All assays were performed in the same buffer conditions of 50 mM NaCl, 10 mM Hepes, pH 7.5, 1 mM EDTA, and 2 mM dithiothreitol. Fluorescent-labelled peptides were kept at a final concentration of 10nM in buffered solution. […] of labelled peptides were added to […] of a 300 nM STAT3 protein solution (provided by SignalChem in 50 mM Tris-HCl, pH 7.5, 150 mM NaCl, 0.25 mM DTT, 0.1 mM PMSF, 25% glycerol and stored at −80° C.). Inhibitory molecules were dissolved in pure DMSO and diluted using buffer solution to produce four final concentrations ([…]). 7.5 μL of the inhibitory molecule solution was mixed with the STAT3 protein and labelled peptide solution in black 384-flat well microplates (Coming), and incubated for 15-30 minutes. The M1000 performed a shaking cycle and then read the plates. IC50′s were derived from the output using the curve-fitting software OriginPro 8 (Northampton, MA). The FP data was modelled by the following equation:
[formula] where X was the concentration of inhibitor and ρwas the corresponding fluorescence at that concentration. The free parameter was half the maximal inhibitory concentration (IC50) and the limiting values was the maximal measured fluorescence polarization (ρ1) and the minimal fluorescence polarization (ρ2). Origin curve fitting software utilizes the Levenberg-Marquardt algorithm and reduced chi-square criterion for convergence. The inhibitor dissociation constant, Ki, was calculated from the derived IC50 values, as per the following formula: […]
Further details of the fluorescence polarization assay are as described previously (Zhang X, et al. (2010) A novel small-molecule disrupts Stat3 SH2domainphosphotyrosine interactions and Stat3-dependent tumor processes. Biochem Pharmacol 79: 1398-1409).

Sequence of STAT3 (P40763 whole entry): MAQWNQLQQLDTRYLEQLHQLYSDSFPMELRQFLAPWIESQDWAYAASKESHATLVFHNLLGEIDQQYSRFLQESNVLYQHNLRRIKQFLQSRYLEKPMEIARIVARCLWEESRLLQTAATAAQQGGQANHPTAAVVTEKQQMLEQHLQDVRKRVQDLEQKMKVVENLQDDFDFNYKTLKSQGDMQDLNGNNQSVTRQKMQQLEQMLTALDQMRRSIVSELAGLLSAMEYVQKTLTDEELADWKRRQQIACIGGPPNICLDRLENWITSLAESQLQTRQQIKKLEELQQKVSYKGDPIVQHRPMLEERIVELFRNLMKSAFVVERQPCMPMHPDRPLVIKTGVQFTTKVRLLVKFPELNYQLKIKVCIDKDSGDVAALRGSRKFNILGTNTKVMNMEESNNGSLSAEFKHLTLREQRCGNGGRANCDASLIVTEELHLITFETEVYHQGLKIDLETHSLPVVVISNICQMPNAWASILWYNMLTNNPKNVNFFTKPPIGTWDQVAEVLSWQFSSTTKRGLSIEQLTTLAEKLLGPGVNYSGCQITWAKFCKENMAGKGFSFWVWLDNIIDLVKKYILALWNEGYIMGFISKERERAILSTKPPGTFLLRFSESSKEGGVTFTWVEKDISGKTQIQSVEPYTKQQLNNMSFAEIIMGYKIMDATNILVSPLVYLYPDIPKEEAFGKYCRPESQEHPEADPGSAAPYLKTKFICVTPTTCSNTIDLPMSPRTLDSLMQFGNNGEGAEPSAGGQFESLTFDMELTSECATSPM

Row | Ki | Compound
1 | 6.2 ± 1.6 µM | Cc1ccc(S(=O)(=O)N(CC(=O)N(Cc2ccc(C3CCCCC3)cc2)c2ccc(C(=O)O)c(O)c2)Cc2cccc(N)c2)cc1 [BP3-016]
2 | 2.5 ± 1 µM | Cc1ccc(S(=O)(=O)N(CC(=O)N(Cc2ccc(C3CCCCC3)cc2)c2ccc(C(=O)O)c(O)c2)Cc2ccc3ccccc3c2)cc1 [BP2-057]
3 | 12 ± 0.5 µM | Cc1ccc(S(=O)(=O)N(CC(=O)N(Cc2ccc(C3CCCCC3)cc2)c2ccc(C(=O)O)c(O)c2)Cc2ccccc2N)cc1 [BP3-018]
4 | 4.4 ± 0.3 µM | Cc1ccc(S(=O)(=O)N(CC(=O)N(Cc2ccc(C3CCCCC3)cc2)c2ccc(C(=O)O)c(O)c2)Cc2cccc(F)c2)cc1 [BP2-066]
5 | 3.8 ± 1.5 µM | CCOC(=O)c1ccc(CN(CC(=O)N(Cc2ccc(C3CCCCC3)cc2)c2ccc(C(=O)O)c(O)c2)S(=O)(=O)c2ccc(C)cc2)cc1 [XW1-053]
6 | 5.8 ± 0.6 µM | COC(=O)c1ccc(CN(CC(=O)N(Cc2ccc(C3CCCCC3)cc2)c2ccc(C(=O)O)c(O)c2)S(=O)(=O)c2ccc(C)cc2)cc1 [XW1-083]
7 | > 50 µM | Cc1ccc(CN(CC(=O)N(Cc2ccc(C3CCCCC3)cc2)c2ccc(C(=O)O)c(O)c2)S(=O)(=O)c2ccc(C)cc2)cc1 [BP2-028]
8 | 23.3 ± 0.7 µM | Cc1ccc(S(=O)(=O)N(CC(=O)N(Cc2ccc(C3CCCCC3)cc2)c2ccc(C(=O)O)c(O)c2)Cc2ccncc2)cc1 [BP2-086]
9 | 2.6 ± 0.2 µM | Cc1ccc(S(=O)(=O)N(CC(=O)N(Cc2ccc(C3CCCCC3)cc2)c2ccc(C(=O)O)c(O)c2)Cc2cccc(C)c2)cc1 [BP2-056]
10 | 3.1 ± 0.1 µM | Cc1ccc(S(=O)(=O)N(CC(=O)N(Cc2ccc(C3CCCCC3)cc2)c2ccc(C(=O)O)c(O)c2)Cc2ccc(Cl)cc2)cc1 [SH3-076]
11 | 4.8 ± 0.6 µM | Cc1ccc(S(=O)(=O)N(CC(=O)N(Cc2ccc(C3CCCCC3)cc2)c2ccc(C(=O)O)c(O)c2)Cc2ccc(SC(F)(F)F)cc2)cc1 [XW1-057]
12 | 3.8 ± 1.6 µM | Cc1ccc(S(=O)(=O)N(CC(=O)N(Cc2ccc(C3CCCCC3)cc2)c2ccc(C(=O)O)c(O)c2)Cc2ccc(F)cc2)cc1 [BP2-065]
13 | 6.2 ± 0.8 µM | Cc1ccc(S(=O)(=O)N(CC(=O)N(Cc2ccc(C3CCCCC3)cc2)c2ccc(C(=O)O)c(O)c2)Cc2cccc(C#N)c2)cc1 [BP3-023]
14 | 4.6 ± 1.6 µM | Cc1ccc(S(=O)(=O)N(CC(=O)N(Cc2ccc(C3CCCCC3)cc2)c2ccc(C(=O)O)c(O)c2)Cc2ccc(C(F)(F)F)cc2)cc1 [XW1-059]
15 | 4.3 ± 0.7 µM | Cc1ccc(S(=O)(=O)N(CC(=O)N(Cc2ccc(C3CCCCC3)cc2)c2ccc(C(=O)O)c(O)c2)Cc2ccc(C#N)cc2)cc1 [BP3-021]
16 | 5.3 ± 0.3 µM | Cc1ccc(S(=O)(=O)N(CC(=O)N(Cc2ccc(C3CCCCC3)cc2)c2ccc(C(=O)O)c(O)c2)Cc2ccccc2F)cc1 [BP2-067]
17 | 5.9 ± 0.6 µM | Cc1ccc(S(=O)(=O)N(CC(=O)N(Cc2ccc(C3CCCCC3)cc2)c2ccc(C(=O)O)c(O)c2)Cc2ccc(OC(F)(F)F)cc2)cc1 [XW1-077]
18 | 7.2 ± 2.2 µM | Cc1ccc(S(=O)(=O)N(CC(=O)N(Cc2ccc(C3CCCCC3)cc2)c2ccc(C(=O)O)c(O)c2)Cc2ccccc2)cc1 [BP2-027]
19 | 7.9 ± 0.3 µM | Cc1ccc(S(=O)(=O)N(CC(=O)N(Cc2ccc(C3CCCCC3)cc2)c2ccc(C(=O)O)c(O)c2)Cc2ccccc2Cl)cc1 [SH3-079]
20 | 25.4 ± 0.8 µM | Cc1ccc(S(=O)(=O)N(CC(=O)N(Cc2ccc(C3CCCCC3)cc2)c2ccc(C(=O)O)c(O)c2)Cc2cccnc2)cc1 [BP2-130]
21 | 5.5 ± 3.7 µM | Cc1ccc(S(=O)(=O)N(CC(=O)N(Cc2ccc(C3CCCCC3)cc2)c2ccc(C(=O)O)c(O)c2)Cc2ccc([N+](=O)[O-])cc2)cc1 [BP3-014]
22 | 2.6 ± 0.2 µM | Cc1ccc(S(=O)(=O)N(CC(=O)N(Cc2ccc(C3CCCCC3)cc2)c2ccc(C(=O)O)c(O)c2)Cc2ccccc2C)cc1 [BP2-047]
23 | 3 ± 4.1 µM | Cc1ccc(S(=O)(=O)N(CC(=O)N(Cc2ccc(C3CCCCC3)cc2)c2ccc(C(=O)O)c(O)c2)Cc2cccc(Cl)c2)cc1 [SH3-077]

More lines, now with the values behind:

Row | Compound | Ki
24 | Cc1ccc(S(=O)(=O)N(CC(=O)N(Cc2ccc(C3CCCCC3)cc2)c2ccc(C(=O)O)c(O)c2)Cc2cccc(OC(F)(F)F)c2)cc1 [XW1-055] | 4 ± 1.1 µM
25 | COC(=O)c1cccc(CN(CC(=O)N(Cc2ccc(C3CCCCC3)cc2)c2ccc(C(=O)O)c(O)c2)S(=O)(=O)c2ccc(C)cc2)c1 [XW1-081] | 9.2 ± 0.8 µM
26 | C=CCN(CC(=O)N(Cc1ccc(C2CCCCC2)cc1)c1ccc(C(=O)O)c(O)c1)S(=O)(=O)c1ccc(C)cc1 [BP2-125] | 27.9 ± 5 µM
27 | Cc1ccc(S(=O)(=O)N(CC(=O)N(Cc2ccc(C3CCCCC3)cc2)c2ccc(C(=O)O)c(O)c2)Cc2ccccc2C(F)(F)F)cc1 [BP2-061] | 1.8 ± 2.3 µM
28 | Cc1ccc(S(=O)(=O)N(C)CC(=O)N(Cc2ccc(C3CCN(C(=O)OC(C)(C)C)CC3)cc2)c2ccc(C(=O)O)c(O)c2)cc1 [Compound 27KC, 4-(N-(4-(1-(tert-butoxycarbonyl)piperidin-4-yl)benzyl)-2-(N,4-dimethylphenylsulfon-amido)acetamido)-2-hydroxybenzoic acid] | 18.7 ± 1.4 µM
29 | Cc1ccc(S(=O)(=O)N(CC(=O)N(Cc2ccc(C3CCCCC3)cc2)c2ccc(C(=O)O)c(O)c2)Cc2ccc(F)cc2C(F)(F)F)cc1 [XW1-075] | 5.5 ± 0.4 µM
30 | Cc1ccc(S(=O)(=O)N(CC(=O)N(Cc2ccc(C3CCCCC3)cc2)c2ccc(C(=O)O)c(O)c2)CC(C)C)cc1 [BP2-046] | 8.3 ± 0.3 µM
31 | Cc1ccc(S(=O)(=O)N2CCC[C@H]2C(=O)N(Cc2ccc(C3CCCCC3)cc2)c2ccc(C(=O)O)c(O)c2)cc1 [BP2-029] | 33 ± 22 µM
32 | Cc1ccc(S(=O)(=O)N(CC(=O)N(Cc2ccc(C3CCCCC3)cc2)c2ccc(C(=O)O)c(O)c2)Cc2ccccc2OC(F)(F)F)cc1 [XW1-061] | 3.6 ± 0.5 µM
33 | Cc1ccc(S(=O)(=O)N(CC(=O)N(Cc2ccc(C3CCCCC3)cc2)c2ccc(C(=O)O)c(O)c2)Cc2cccc([N+](=O)[O-])c2)cc1 [BP3-019] | 2.5 ± 2.2 µM
34 | Cc1ccc(S(=O)(=O)N(CC(=O)N(Cc2ccc(C3CCCCC3)cc2)c2ccc(C(=O)O)c(O)c2)Cc2c(F)cc(F)c(F)c2F)cc1 [BP2-119] | 7.7 ± 1 µM
35 | Cc1ccc(S(=O)(=O)N(CC(=O)N(Cc2ccc(C3CCCCC3)cc2)c2ccc(C(=O)O)c(O)c2)Cc2ccccc2[N+](=O)[O-])cc1 [BP3-020] | 5 ± 6.5 µM
36 | Cc1ccc(S(=O)(=O)N2CCC[C@@H]2C(=O)N(Cc2ccc(C3CCCCC3)cc2)c2ccc(C(=O)O)c(O)c2)cc1 [BP2-032] | > 50 µM
37 | Cc1ccc(S(=O)(=O)N(CC(=O)N(Cc2ccc(C3CCCCC3)cc2)c2ccc(C(=O)O)c(O)c2)Cc2c(F)c(F)c(F)c(F)c2F)cc1 [BP2-068] | 4.5 ± 1.9 µM
38 | Cc1ccc(S(=O)(=O)N(CC(=O)N(Cc2ccc(C3CCCCC3)cc2)c2ccc(C(=O)O)c(O)c2)Cc2c(F)c(F)cc(F)c2F)cc1 [BP2-121] | 11.4 ± 0.4 µM
39 | Cc1ccc(S(=O)(=O)N(CC(=O)N(Cc2ccc(C3CCCCC3)cc2)c2ccc(C(=O)O)c(O)c2)Cc2ccccc2C#N)cc1 [BP3-024] | 11.3 ± 0.8 µM
40 | Cc1ccc(S(=O)(=O)N(CC(=O)N(Cc2ccc(C3CCCCC3)cc2)c2ccc(C(=O)O)c(O)c2)Cc2ccccn2)cc1 [BP2-131] | 22.6 ± 3 µM
41 | Cc1ccc(S(=O)(=O)N(CC(=O)N(Cc2ccc(C3CCCCC3)cc2)c2ccc(C(=O)O)c(O)c2)Cc2cc(F)c(F)c(F)c2F)cc1 [BP2-120] | 11.1 ± 0.6 µM
42 | Cc1ccc(S(=O)(=O)N(CC(=O)N(Cc2ccc(C3CCCCC3)cc2)c2ccc(C(=O)O)c(O)c2)Cc2cccc(C(F)(F)F)c2)cc1 [XW1-079] | 5.1 ± 0.4 µM
43 | CCCN(CC(=O)N(Cc1ccc(C2CCCCC2)cc1)c1ccc(C(=O)O)c(O)c1)S(=O)(=O)c1ccc(C)cc1 [BP2-033] | 8.9 ± 1.4 µM
44 | Cc1ccc(S(=O)(=O)N(CC(N)=O)CC(=O)N(Cc2ccc(C3CCCCC3)cc2)c2ccc(C(=O)O)c(O)c2)cc1 [BP2-124] | 48.7 ± 14.2 µM

Test system: HL60 cells
Experiment: Cell viability, MTS assay
Format: cell-based
Details: Homo sapiens, HL-60, HL60, 72 hours
Description: (§1) To further test activity of these molecules, a whole-cell study involving cancer lines with known abherrant STAT3 expression was conducted. These human cell lines, including prostate cancer (DU145), breast cancer (MDA468), and promyelocytic leukemia (HL-60) were treated with the peptidomimetics and incubated for 72 hours. Disruption of cell viability was measured by MTS assay and IC50 values for the potential inhibitors was determined. OriginPro 8 (Northampton, Mass.) was used to evaluate EC50 using the dose response curve defined as follows:
(§2) [formula] where y is the fraction of death, x is the log of drug concentration. A2 is the top asymptote, A1 is the bottom asymptote, logx0 is the center of the curve, and p is the hill slope.

Row | IC50 | Compound
45 | 99.3 ± 62.1 µM | CN(CC(=O)N(Cc1ccc(C2CCCCC2)cc1)c1ccc(C(=O)O)c(O)c1)S(=O)(=O)c1ccc([N+](=O)[O-])cc1 [Compound 45N, 4-(N-(4-cyclohexylbenzyl)-2-(N-methyl-4-nitrophenylsulfonamido)acetamido)-2-hydroxy benzoic acid]
46 | > 100 µM | COC(=O)c1ccc(-c2ccc(-c3ccc(CN(C(=O)CN(C)S(=O)(=O)c4ccc(C)cc4)c4ccc(C(=O)O)c(O)c4)cc3)cc2)cc1 [Compound 27NE]

Test system: MDA-468 cells
Experiment: Cell viability, MTS assay
Format: cell-based
Details: Homo sapiens, MDA-468, 72 hours
Description: as §1, §2

Row | Compound | IC50
47 | CN(CC(=O)N(Cc1ccc(C2CCCCC2)cc1)c1ccc(C(=O)O)c(O)c1)S(=O)(=O)c1ccc([N+](=O)[O-])cc1 [Compound 45N, 4-(N-(4-cyclohexylbenzyl)-2-(N-methyl-4-nitrophenylsulfonamido)acetamido)-2-hydroxy benzoic acid] | 51.7 ± 14.2 µM
48 | COC(=O)c1ccc(-c2ccc(-c3ccc(CN(C(=O)CN(C)S(=O)(=O)c4ccc(C)cc4)c4ccc(C(=O)O)c(O)c4)cc3)cc2)cc1 [Compound 27NE] | 96.3 ± 31.7 µM

Test system: DU-145 cells
Experiment: Cell viability, MTS assay
Format: cell-based
Details: Homo sapiens, DU-145, 72 hours
Description: as §1, §2

Row | IC50 | Compound
49 | > 100 µM | CN(CC(=O)N(Cc1ccc(C2CCCCC2)cc1)c1ccc(C(=O)O)c(O)c1)S(=O)(=O)c1ccc([N+](=O)[O-])cc1 [Compound 45N, 4-(N-(4-cyclohexylbenzyl)-2-(N-methyl-4-nitrophenylsulfonamido)acetamido)-2-hydroxy benzoic acid]
50 | > 100 µM | COC(=O)c1ccc(-c2ccc(-c3ccc(CN(C(=O)CN(C)S(=O)(=O)c4ccc(C)cc4)c4ccc(C(=O)O)c(O)c4)cc3)cc2)cc1 [Compound 27NE]

Test system: OCI-AMI.2 cells
Experiment: Cell viability, MTS assay
Format: cell-based
Details: not given

Row | IC50 | Compound
51 | 96.3 ± 18.5 µM | CN(CC(=O)N(Cc1ccc(C2CCCCC2)cc1)c1ccc(C(=O)O)c(O)c1)S(=O)(=O)c1ccc([N+](=O)[O-])cc1 [Compound 45N, 4-(N-(4-cyclohexylbenzyl)-2-(N-methyl-4-nitrophenylsulfonamido)acetamido)-2-hydroxy benzoic acid]
52 | > 100 µM | COC(=O)c1ccc(-c2ccc(-c3ccc(CN(C(=O)CN(C)S(=O)(=O)c4ccc(C)cc4)c4ccc(C(=O)O)c(O)c4)cc3)cc2)cc1 [Compound 27NE]
